From PMC7156458, “Synthetic biology based construction of biological activity-related library of fungal decalin-containing diterpenoid pyrones” (Nature Communications, 2020)

Biological target: Aβ42 (Homo sapiens, UniProt P05067)
Assay: Th-T (thioflavin-T) assay of Aβ42 aggregation
Type: biochemical
Settings: for Th-T fluorescence of Aβ42 (sheet Fig. 7a), mean of three wells: head suffix _50 (concentration 50); for Th-T assay plate reading, mean of three wells (Supplementary Fig. 47): source data, Ab alone and No Ab as controls; for Th-T fluorescence, mean of three wells: Supplementary Fig. 47 source data

Aβ42, sequence (P05067 672-713): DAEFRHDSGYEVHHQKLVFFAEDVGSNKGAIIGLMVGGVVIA

C=C1CCC2C(C)(CCC=C(C)C)C(O)CCC2(C)C1Cc1c(OC)oc(C)c(C(=O)OC)c1=O (stereo not drawn) [Compound 14]
Th-T fluorescence of Aβ42 (sheet Fig. 7a), mean of three wells (reading M73): 2.8491
Th-T fluorescence of Aβ42 (sheet Fig. 7a), mean of three wells (reading M74): 2.743
Th-T fluorescence of Aβ42 (sheet Fig. 7a), mean of three wells (reading M75): 2.678
Th-T fluorescence of Aβ42 (sheet Fig. 7a), mean of three wells (reading M76): 2.6047
Th-T fluorescence of Aβ42 (sheet Fig. 7a), mean of three wells (reading M77): 2.524
Th-T fluorescence of Aβ42 (sheet Fig. 7a), mean of three wells (reading M78): 2.476
Th-T fluorescence of Aβ42 (sheet Fig. 7a), mean of three wells (reading M79): 2.356
Th-T fluorescence of Aβ42 (sheet Fig. 7a), mean of three wells (reading M80): 2.329
Th-T fluorescence of Aβ42 (sheet Fig. 7a), mean of three wells (reading M81): 2.257
Th-T fluorescence of Aβ42 (sheet Fig. 7a), mean of three wells (reading M82): 2.201
Th-T fluorescence of Aβ42 (sheet Fig. 7a), mean of three wells (reading M83): 2.154
Th-T fluorescence of Aβ42 (sheet Fig. 7a), mean of three wells (reading M84): 2.095
Th-T assay plate reading, mean of three wells (Supplementary Fig. 47) (measurement M1): 0.2816
Th-T assay plate reading, mean of three wells (Supplementary Fig. 47) (measurement M2): 0.2424
Th-T assay plate reading, mean of three wells (Supplementary Fig. 47) (measurement M3): 0.24
Th-T assay plate reading, mean of three wells (Supplementary Fig. 47) (measurement M4): 0.2537
Th-T assay plate reading, mean of three wells (Supplementary Fig. 47) (measurement M5): 0.2619
Th-T assay plate reading, mean of three wells (Supplementary Fig. 47) (measurement M6): 0.2823
Th-T assay plate reading, mean of three wells (Supplementary Fig. 47) (measurement M7): 0.2966
Th-T assay plate reading, mean of three wells (Supplementary Fig. 47) (measurement M8): 0.3078
Th-T assay plate reading, mean of three wells (Supplementary Fig. 47) (measurement M9): 0.3225
Th-T assay plate reading, mean of three wells (Supplementary Fig. 47) (measurement M10): 0.3472
Th-T assay plate reading, mean of three wells (Supplementary Fig. 47) (measurement M11): 0.3856
Th-T assay plate reading, mean of three wells (Supplementary Fig. 47) (measurement M12): 0.4563
Th-T assay plate reading, mean of three wells (Supplementary Fig. 47) (measurement M13): 0.5559
Th-T assay plate reading, mean of three wells (Supplementary Fig. 47) (measurement M14): 0.6968
Th-T assay plate reading, mean of three wells (Supplementary Fig. 47) (measurement M15): 0.8869
Th-T assay plate reading, mean of three wells (Supplementary Fig. 47) (measurement M16): 1.062
Th-T fluorescence, mean of three wells (Fig. 7a) (reading M107, compound at 10 (head suffix _10)): 2.856
Th-T fluorescence, mean of three wells (Fig. 7a) (reading M107, compound at 20 (head suffix _20)): 1.717
Th-T fluorescence, mean of three wells (Fig. 7a) (reading M107, compound at 50 (head suffix _50)): 1.263
Th-T fluorescence, mean of three wells (Fig. 7a) (reading M108, compound at 10 (head suffix _10)): 2.848
Th-T fluorescence, mean of three wells (Fig. 7a) (reading M108, compound at 20 (head suffix _20)): 1.693
Th-T fluorescence, mean of three wells (Fig. 7a) (reading M108, compound at 50 (head suffix _50)): 1.239
Th-T fluorescence, mean of three wells (Fig. 7a) (reading M109, compound at 10 (head suffix _10)): 2.86
Th-T fluorescence, mean of three wells (Fig. 7a) (reading M109, compound at 20 (head suffix _20)): 1.668
Th-T fluorescence, mean of three wells (Fig. 7a) (reading M109, compound at 50 (head suffix _50)): 1.221
Th-T fluorescence, mean of three wells (Fig. 7a) (reading M110, compound at 10 (head suffix _10)): 2.89
Th-T fluorescence, mean of three wells (Fig. 7a) (reading M110, compound at 20 (head suffix _20)): 1.691
Th-T fluorescence, mean of three wells (Fig. 7a) (reading M110, compound at 50 (head suffix _50)): 1.198
Th-T fluorescence, mean of three wells (Fig. 7a) (reading M111, compound at 10 (head suffix _10)): 2.887
Th-T fluorescence, mean of three wells (Fig. 7a) (reading M111, compound at 20 (head suffix _20)): 1.674
Th-T fluorescence, mean of three wells (Fig. 7a) (reading M111, compound at 50 (head suffix _50)): 1.171
Th-T fluorescence, mean of three wells (Fig. 7a) (reading M112, compound at 10 (head suffix _10)): 2.867
Th-T fluorescence, mean of three wells (Fig. 7a) (reading M112, compound at 20 (head suffix _20)): 1.668
Th-T fluorescence, mean of three wells (Fig. 7a) (reading M112, compound at 50 (head suffix _50)): 1.153
Th-T fluorescence, mean of three wells (Fig. 7a) (reading M113, compound at 10 (head suffix _10)): 2.843
Th-T fluorescence, mean of three wells (Fig. 7a) (reading M113, compound at 20 (head suffix _20)): 1.686
Th-T fluorescence, mean of three wells (Fig. 7a) (reading M113, compound at 50 (head suffix _50)): 1.142
Th-T fluorescence, mean of three wells (Fig. 7a) (reading M114, compound at 10 (head suffix _10)): 2.88
Th-T fluorescence, mean of three wells (Fig. 7a) (reading M114, compound at 20 (head suffix _20)): 1.678
Th-T fluorescence, mean of three wells (Fig. 7a) (reading M114, compound at 50 (head suffix _50)): 1.107
Th-T fluorescence, mean of three wells (Fig. 7a) (reading M115, compound at 10 (head suffix _10)): 2.899
Th-T fluorescence, mean of three wells (Fig. 7a) (reading M115, compound at 20 (head suffix _20)): 1.649
Th-T fluorescence, mean of three wells (Fig. 7a) (reading M115, compound at 50 (head suffix _50)): 1.096
Th-T fluorescence, mean of three wells (Fig. 7a) (reading M116, compound at 10 (head suffix _10)): 2.891
Th-T fluorescence, mean of three wells (Fig. 7a) (reading M116, compound at 20 (head suffix _20)): 1.656
Th-T fluorescence, mean of three wells (Fig. 7a) (reading M116, compound at 50 (head suffix _50)): 1.094
Th-T fluorescence, mean of three wells (Fig. 7a) (reading M117, compound at 10 (head suffix _10)): 2.891
Th-T fluorescence, mean of three wells (Fig. 7a) (reading M117, compound at 20 (head suffix _20)): 1.6485
Th-T fluorescence, mean of three wells (Fig. 7a) (reading M117, compound at 50 (head suffix _50)): 1.063
Th-T fluorescence, mean of three wells (Fig. 7a) (reading M118, compound at 10 (head suffix _10)): 2.882
Th-T fluorescence, mean of three wells (Fig. 7a) (reading M118, compound at 20 (head suffix _20)): 1.636
Th-T fluorescence, mean of three wells (Fig. 7a) (reading M118, compound at 50 (head suffix _50)): 1.027
Th-T fluorescence, mean of three wells (Fig. 7a) (reading M119, compound at 10 (head suffix _10)): 2.895
Th-T fluorescence, mean of three wells (Fig. 7a) (reading M119, compound at 20 (head suffix _20)): 1.645
Th-T fluorescence, mean of three wells (Fig. 7a) (reading M119, compound at 50 (head suffix _50)): 1.02
Th-T fluorescence, mean of three wells (Fig. 7a) (reading M120, compound at 10 (head suffix _10)): 2.912
Th-T fluorescence, mean of three wells (Fig. 7a) (reading M120, compound at 20 (head suffix _20)): 1.644
Th-T fluorescence, mean of three wells (Fig. 7a) (reading M120, compound at 50 (head suffix _50)): 1.015
Th-T fluorescence, mean of three wells (Fig. 7a) (reading M121, compound at 10 (head suffix _10)): 2.89
Th-T fluorescence, mean of three wells (Fig. 7a) (reading M121, compound at 20 (head suffix _20)): 1.621
Th-T fluorescence, mean of three wells (Fig. 7a) (reading M121, compound at 50 (head suffix _50)): 1.008
Th-T fluorescence, mean of three wells (Fig. 7a) (reading M122, compound at 10 (head suffix _10)): 2.911
Th-T fluorescence, mean of three wells (Fig. 7a) (reading M122, compound at 20 (head suffix _20)): 1.5939
Th-T fluorescence, mean of three wells (Fig. 7a) (reading M122, compound at 50 (head suffix _50)): 0.9934
Th-T fluorescence, mean of three wells (Fig. 7a) (reading M123, compound at 10 (head suffix _10)): 2.8989
Th-T fluorescence, mean of three wells (Fig. 7a) (reading M123, compound at 20 (head suffix _20)): 1.589
Th-T fluorescence, mean of three wells (Fig. 7a) (reading M123, compound at 50 (head suffix _50)): 0.9605
Th-T fluorescence, mean of three wells (Fig. 7a) (reading M124, compound at 10 (head suffix _10)): 2.906
Th-T fluorescence, mean of three wells (Fig. 7a) (reading M124, compound at 20 (head suffix _20)): 1.657
Th-T fluorescence, mean of three wells (Fig. 7a) (reading M124, compound at 50 (head suffix _50)): 0.9345
Th-T fluorescence, mean of three wells (Fig. 7a) (reading M125, compound at 10 (head suffix _10)): 2.918
Th-T fluorescence, mean of three wells (Fig. 7a) (reading M125, compound at 20 (head suffix _20)): 1.601
Th-T fluorescence, mean of three wells (Fig. 7a) (reading M125, compound at 50 (head suffix _50)): 0.9471
Th-T fluorescence, mean of three wells (Fig. 7a) (reading M126, compound at 10 (head suffix _10)): 2.913
Th-T fluorescence, mean of three wells (Fig. 7a) (reading M126, compound at 20 (head suffix _20)): 1.6231
Th-T fluorescence, mean of three wells (Fig. 7a) (reading M126, compound at 50 (head suffix _50)): 0.9219
Th-T fluorescence, mean of three wells (Fig. 7a) (reading M127, compound at 10 (head suffix _10)): 2.92
Th-T fluorescence, mean of three wells (Fig. 7a) (reading M127, compound at 20 (head suffix _20)): 1.639
Th-T fluorescence, mean of three wells (Fig. 7a) (reading M127, compound at 50 (head suffix _50)): 0.9074
Th-T fluorescence, mean of three wells (Fig. 7a) (reading M128, compound at 10 (head suffix _10)): 2.916
Th-T fluorescence, mean of three wells (Fig. 7a) (reading M128, compound at 20 (head suffix _20)): 1.631
Th-T fluorescence, mean of three wells (Fig. 7a) (reading M128, compound at 50 (head suffix _50)): 0.8816
Th-T fluorescence, mean of three wells (time-course reading M97): 1.587
Th-T fluorescence, mean of three wells (time-course reading M98): 1.593
Th-T fluorescence, mean of three wells (time-course reading M99): 1.591
Th-T fluorescence, mean of three wells (time-course reading M100): 1.596
Th-T fluorescence, mean of three wells (time-course reading M101): 1.605
Th-T fluorescence, mean of three wells (time-course reading M102): 1.603
Th-T fluorescence, mean of three wells (time-course reading M103): 1.613
Th-T fluorescence, mean of three wells (time-course reading M104): 1.605
Th-T fluorescence, mean of three wells (time-course reading M105): 1.614
Th-T fluorescence, mean of three wells (time-course reading M106): 1.61
Th-T fluorescence, mean of three wells (time-course reading M107): 1.627
Th-T fluorescence, mean of three wells (time-course reading M108): 1.622
Th-T fluorescence, mean of three wells (time-course reading M109): 1.637
Th-T fluorescence, mean of three wells (time-course reading M110): 1.6366
Th-T fluorescence, mean of three wells (time-course reading M111): 1.648
Th-T fluorescence, mean of three wells (time-course reading M112): 1.658
Th-T fluorescence, mean of three wells (time-course reading M113): 1.641
Th-T fluorescence, mean of three wells (time-course reading M114): 1.648
Th-T fluorescence, mean of three wells (time-course reading M115): 1.646
Th-T fluorescence, mean of three wells (time-course reading M116): 1.651
